Patent US9090599B2, “Heteroarylmethyl amides” (Hoffman-La Roche Inc., priority 2010, dated 2015)
Where two headings read alike, the source gives them in different places.

Assays:
ABCA1 protein = assay: Detection of upregulation of ABCA1 protein in THP-1 macrophage cells (ApoA-I binding, high content imaging); type: cell-based; conditions: 24 hrs with compound, AlexaFluor 647 ApoA-I binding, read-out: ABCA1 protein increasing efficacy EC50
Experimental: The ability of compounds of the invention to increase the level of ABCA1 protein is determined in replicate cultures of THP-1 macrophage cells in 96-well microplates. Cells are plated at an initial density of 100,000 cells/well in 100 μl medium and differentiated to adherent macrophages with the addition of PMA (100 nM) for 68 hrs in 10% fetal bovine serum, 3 μl/L of b-mercaptoethanol, RPMI-1640 medium. Then, cells are incubated with RPMI-1640 medium containing 1% FCS, 25 μg/ml acetylated LDL, for 24 hours at 37°. Following incubation with acetylated LDL, cells are washed twice with 50 μl PBS and incubated with 100 μl of RPMI-1640 medium containing the compound of interest solubilized in DMSO for an additional 24 hrs. The final DMSO concentration in presence of cells is maintained at 0.5%. ApoA-I binding assay using High Content Image Analysis is initiated by replacing with fresh medium, RPMI without Phenol Red, 0.2% BSA containing AlexaFluor®647 labeled ApoA-I for 2 h/37° C./5% CO2. Then, cells are fixed with 4% Formaldehyde in PBS (15 min, RT). Following Nuclei are stained with Hoechst solution (3 μM PBS) and Cytoplasm with Cell Mask Blue (2 μg/ml PBS), 15 min, RT. Finally the stained cells are fixed with a second round of formaldehyde treatment. Fixed stained cells are washed and kept in PBS at 4° C. and can be read immediately until one month after preparation.
The Alexa Fluor 647-labeled Apolipoprotein A-I (20 nM) was prepared as follows: Human recombinant Apolipoprotein A-I (ApoA-I) was exchanged to a buffer of 0.02 M NaHCO3 at pH 8.2 on an NAP desalting column (GE Healthcare) and brought to a concentration to 40 μM (1.13 mg/ml) by adjustment with the same buffer. The ApoA-I was fluorescently labeled by incubation with Alexa Fluor carboxylic acid succimidyl ester. (Alexa Fluor 647, Invitrogen A-20006) at a 2:1 molar ratio (Alexa to ApoA-I) for 1 h under shaking at RT. The remaining unconjugated label was removed by buffer exchange to 0.02M NaHCO3 at pH 8.2.
Imaging and data collection were performed on an OPERA confocal microplate imaging reader using a 20× water immersion objective and UV360 or 405 laser to identify the cell nuclei and a 635 laser to identify the fluorescent ApoA-I. Eight fields of view are captured per well. Image capture and analysis was performed with the Acapella software. Background fluorescence detected in control wells without ApoA-I was subtracted.
Using XLfit3 program (ID Business Solutions Ltd. UK), the model 205 for Dose Response One Site is used to calculate the EC50 values. […] Preferably, the compounds of the present invention have EC50 values in a range of 0.1 μM to 3 μM.

human CB1 receptor = target: T1, human CB1 receptor (Homo sapiens, UniProt P21554); assay: CB1 receptor affinity, [3H]-CP-55,940 displacement, HEK cell membranes; type: binding; conditions: read-out: CB1 receptor affinity [% inhibition @ 10 μM]
T1 construct: expressed in transfected cells; host or cells: human embryonic kidney (HEK) cells, Semliki Forest Virus system, membrane preparations
Outline: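 Membranes from HEK cells transiently expressing human CB1 (Semliki Forest Virus system) incubated with [3H]-CP-55,940 with or without test compound. Bound and free ligand separated by glass-fibre filtration and bound radioactivity counted by scintillation. Compounds tested at 10 μM, values reported as % inhibition of radioligand binding.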

human CB2 receptor = target: T2, human CB2 receptor (Homo sapiens, UniProt P34972); assay: CB2 receptor affinity, [3H]-CP-55,940 displacement, HEK cell membranes; type: binding; conditions: 10 μM compound, radioligand [3H]-CP-55,940
T2 construct: expressed in transfected cells; host or cells: human embryonic kidney (HEK) cells, Semliki Forest Virus system, membrane preparations
Outline: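 Membranes from HEK cells transiently expressing human CB2 (Semliki Forest Virus) incubated with [3H]-CP-55,940 ± compound at 10 μM. Bound ligand separated by glass-fibre filtration and counted by scintillation; reported as % inhibition at 10 μM.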

[1] = 10 μM compound, radioligand [3H]-CP-55,940

T1 sequence (P21554 whole entry): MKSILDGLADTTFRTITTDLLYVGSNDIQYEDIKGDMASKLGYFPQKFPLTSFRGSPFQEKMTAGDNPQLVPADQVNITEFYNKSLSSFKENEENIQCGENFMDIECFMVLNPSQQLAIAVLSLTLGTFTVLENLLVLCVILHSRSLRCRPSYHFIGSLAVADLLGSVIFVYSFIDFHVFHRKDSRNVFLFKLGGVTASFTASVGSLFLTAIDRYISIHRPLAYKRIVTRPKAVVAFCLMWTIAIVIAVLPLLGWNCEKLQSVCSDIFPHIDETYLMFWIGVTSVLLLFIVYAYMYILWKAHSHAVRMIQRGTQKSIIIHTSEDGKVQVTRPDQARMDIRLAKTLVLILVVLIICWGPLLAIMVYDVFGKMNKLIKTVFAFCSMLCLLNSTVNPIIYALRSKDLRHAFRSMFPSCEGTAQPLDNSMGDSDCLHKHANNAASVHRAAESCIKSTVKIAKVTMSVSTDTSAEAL
T2 sequence (P34972 whole entry): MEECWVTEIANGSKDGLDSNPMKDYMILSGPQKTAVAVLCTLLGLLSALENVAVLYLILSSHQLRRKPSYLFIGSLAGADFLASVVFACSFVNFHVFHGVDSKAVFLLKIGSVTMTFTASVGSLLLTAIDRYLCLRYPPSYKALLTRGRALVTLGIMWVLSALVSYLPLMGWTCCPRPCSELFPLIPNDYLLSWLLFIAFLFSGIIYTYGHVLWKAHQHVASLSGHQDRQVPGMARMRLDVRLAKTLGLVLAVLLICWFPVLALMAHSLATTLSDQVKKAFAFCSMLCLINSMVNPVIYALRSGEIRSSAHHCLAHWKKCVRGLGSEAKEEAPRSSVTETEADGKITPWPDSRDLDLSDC

SMILES	EC50 (ABCA1 protein)	inhibition at 10 µM (human CB1 receptor; [1])	inhibition at 10 µM (human CB2 receptor)	inhibition at 10 µM (human CB1 receptor)
CC(C)c1nc(CNC(=O)c2cc(-c3ccc(Cl)cc3)c(OCC(F)(F)F)cn2)cs1 [Example 6, 4-(4-chloro-phenyl)-5-(2,2,2-trifluoro-ethoxy)-pyridine-2-carboxylic acid (2-isopropyl-thiazol-4-ylmethyl)-amide]	7800 nM	5%	15%	
CC(C)c1cc(CNC(=O)c2cc(-c3ccc(Cl)cc3)c(OCC(F)(F)F)cn2)no1 [Example 27, 4-(4-chlorophenyl)-N-((5-isopropylisoxazol-3-yl)methyl)-5-(2,2,2-trifluoroethoxy)picolinamide]	970 nM	40%	24%	
O=C(NCc1nc(C(F)(F)F)no1)c1cc(-c2ccc(Cl)cc2)c(OCC(F)(F)F)nn1 [Example 46, 5-(4-chloro-phenyl)-6-(2,2,2-trifluoro-ethoxy)-pyridazine-3-carboxylic acid (3-trifluoromethyl-[1,2,4]oxadiazol-5-ylmethyl)-amide]	780 nM	30%	0%	
O=C(NCc1cc(C(F)(F)F)on1)c1cc(-c2ccc(Cl)cc2)c(OCC(F)(F)F)nn1 [Example 67, 5-(4-chloro-phenyl)-6-(2,2,2-trifluoro-ethoxy)-pyridazine-3-carboxylic acid (5-trifluoromethyl-isoxazol-3-ylmethyl)-amide]	780 nM	25%	3%	
COc1cc(CNC(=O)c2cnc(O[C@@H](C)C(F)(F)F)c(-c3ccc(Cl)cc3)n2)on1 [Example 29, (S)-6-(4-chlorophenyl)-N-((3-methoxyisoxazol-5-yl)methyl)-5-(1,1,1-trifluoropropan-2-yloxy)pyrazine-2-carboxamide]	1870 nM	27%	17%	
O=C(NCc1cc(C2CC2)on1)c1cc(-c2ccc(Cl)cc2)c(OCC(F)(F)F)cn1 [Example 28, 4-(4-chlorophenyl)-N-((5-cyclopropylisoxazol-3-yl)methyl)-5-(2,2,2-trifluoroethoxy)picolinamide]	870 nM	42%	29%	
CCCn1ccc(CNC(=O)c2cnc(OCC(F)(F)F)c(-c3ccc(Cl)cc3)c2)n1 [Example 14, 5-(4-chloro-phenyl)-N-(1-propyl-1H-pyrazol-3-ylmethyl)-6-(2,2,2-trifluoro-ethoxy)-nicotinamide]	950 nM	48%	12%	
CCCc1nc(CNC(=O)c2cnc(OCC(F)(F)F)c(-c3ccc(Cl)cc3)c2)cs1 [Example 9, 5-(4-chloro-phenyl)-N-(2-propyl-thiazol-4-ylmethyl)-6-(2,2,2-trifluoro-ethoxy)-nicotinamide]	900 nM	18%	1%	
CCCc1nc(CNC(=O)c2cnc(OCC3CC3)c(-c3ccc(Cl)cc3)c2)cs1 [Example 11, 5-(4-chloro-phenyl)-6-cyclopropylmethoxy-N-(2-propyl-thiazol-4-ylmethyl)-nicotinamide]	1500 nM		12%	25%
Cc1cc(-c2cc(C(=O)NCc3csc(C4CC4)n3)cnc2OCC(F)(F)F)ccc1Cl [Example 71, 5-(4-chloro-3-methylphenyl)-N-((2-cyclopropylthiazol-4-yl)methyl)-6-(2,2,2-trifluoroethoxy)nicotinamide]	4290 nM	2%	-7%	
CC(C)c1cc(CNC(=O)c2cc(-c3ccc(Cl)cc3)c(OCC(F)(F)F)nn2)no1 [Example 42, 5-(4-chloro-phenyl)-6-(2,2,2-trifluoro-ethoxy)-pyridazine-3-carboxylic acid (5-isopropyl-isoxazol-3-ylmethyl)-amide]	800 nM	34%	13%	
O=C(NCc1nc(C(F)(F)F)no1)c1cc(-c2ccc(Cl)cc2)c(OCC2CC2)cn1 [Example 18, 4-(4-chlorophenyl)-5-(cyclopropylmethoxy)-N-((3-(trifluoromethyl)-1,2,4-oxadiazol-5-yl)methyl)picolinamide]	6910 nM	28%	24%	
COc1cc(CNC(=O)c2cc(-c3ccc(Cl)cc3)c(OCC(F)(F)F)cn2)on1 [Example 1, 4-(4-chloro-phenyl)-5-(2,2,2-trifluoro-ethoxy)-pyridine-2-carboxylic acid (3-methoxy-isoxazol-5-ylmethyl)-amide]	2010 nM	32%	28%	
Cc1cc(-c2cc(C(=O)NCc3csc(C4CC4)n3)ncc2OCC(F)(F)F)ccc1Cl [Example 76, 4-(4-chloro-3-methylphenyl)-N-((2-cyclopropylthiazol-4-yl)methyl)-5-(2,2,2-trifluoroethoxy)picolinamide]	1640 nM	8%	9%	
COc1cc(CNC(=O)c2cnc(OCC(F)(F)F)c(-c3ccc(F)c(F)c3)c2)on1 [Example 99, 5-(3,4-difluorophenyl)-N-((3-methoxyisoxazol-5-yl)methyl)-6-(2,2,2-trifluoroethoxy)nicotinamide]	1250 nM	20%	9%	
O=C(NCc1noc(C(F)(F)F)n1)c1cnc(OCC(F)(F)F)c(-c2ccc(Cl)cc2)c1 [Example 12, 5-(4-chloro-phenyl)-6-(2,2,2-trifluoro-ethoxy)-N-(5-trifluoromethyl-[1,2,4]oxadiazol-3-ylmethyl)-nicotinamide]	1180 nM	43%	-4%	
CCc1nc(CNC(=O)c2cnc(OCC(F)(F)F)c(-c3ccc(Cl)cc3)c2)cs1 [Example 7, 5-(4-chloro-phenyl)-N-(2-ethyl-thiazol-4-ylmethyl)-6-(2,2,2-trifluoro-ethoxy)-nicotinamide]	1500 nM	22%	6%	
CC(C)c1nc(CNC(=O)c2cnc(OCC(F)(F)F)c(-c3ccc(Cl)cc3)c2)cs1 [Example 8, 5-(4-chloro-phenyl)-N-(2-isopropyl-thiazol-4-ylmethyl)-6-(2,2,2-trifluoro-ethoxy)-nicotinamide]	900 nM		10%	24%
CCCn1ccc(CNC(=O)c2cc(-c3ccc(Cl)cc3)c(OCC(F)(F)F)cn2)n1 [Example 4, 4-(4-chloro-phenyl)-5-(2,2,2-trifluoro-ethoxy)-pyridine-2-carboxylic acid (1-propyl-1H-pyrazol-3-ylmethyl)-amide]	2800 nM	26%	33%	
C[C@H](Oc1ncc(C(=O)NCc2nc(C(F)(F)F)no2)cc1-c1ccc(Cl)cc1)C(F)(F)F [Example 38, (S)-5-(4-chlorophenyl)-N-((3-(trifluoromethyl)-1,2,4-oxadiazol-5-yl)methyl)-6-(1,1,1-trifluoropropan-2-yloxy)nicotinamide]	950 nM	32%	-2%	
O=C(NCc1nc(C(F)(F)F)no1)c1cnc(OCC(F)(F)F)c(-c2ccc(F)c(Cl)c2)c1 [Example 81, 5-(3-chloro-4-fluorophenyl)-6-(2,2,2-trifluoroethoxy)-N-((3-(trifluoromethyl)-1,2,4-oxadiazol-5-yl)methyl)nicotinamide]	890 nM	4%	7%	
